{"source": "ChEMBL document CHEMBL1125334", "about": "“New nonpeptide angiotensin II receptor antagonists. 2. Synthesis, biological properties, and structure-activity relationships of 2-alkyl-4-(biphenylylmethoxy)quinoline derivatives” (J Med Chem, 1992)", "key": {"[1]": {"target": "Angiotensin II receptor (Rattus norvegicus) (UniProt P29089+P25095+P35351)", "assay": "(§1) Intravenous administration to conscious rats for inhibition of pressor response induced by infusion of AII (angiotensin-II).", "assay_type": "functional, organism-based"}, "[2]": {"target": "T1, Type-1 angiotensin II receptor (Cavia porcellus, UniProt Q9WV26)", "T1 sequence (Q9WV26 whole entry)": "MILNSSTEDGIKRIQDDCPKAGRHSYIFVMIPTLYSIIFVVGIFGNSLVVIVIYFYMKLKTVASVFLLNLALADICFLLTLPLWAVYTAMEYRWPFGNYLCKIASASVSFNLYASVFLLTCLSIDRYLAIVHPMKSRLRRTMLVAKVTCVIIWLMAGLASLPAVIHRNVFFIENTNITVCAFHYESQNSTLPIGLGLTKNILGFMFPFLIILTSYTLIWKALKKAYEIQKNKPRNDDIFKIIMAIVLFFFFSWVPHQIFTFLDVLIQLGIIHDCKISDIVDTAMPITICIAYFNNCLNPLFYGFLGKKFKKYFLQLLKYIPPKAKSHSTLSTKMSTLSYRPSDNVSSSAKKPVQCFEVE", "assay": "In vitro inhibition of the specific binding of [125I]angiotensin II to a guinea pig adrenal membrane preparation"}, "[3]": {"tested_on": "Rattus norvegicus", "assay": "as §1", "assay_type": "functional"}}}
{"smiles": "CCc1cc(OCc2ccc(-c3ccccc3-c3nn[nH]n3)cc2)c2ccc(OC)cc2n1", "values": [{"measurement": "ED50", "setting": "[1]", "result": "> 5", "unit": "mg/kg"}]}
{"smiles": "Cc1nc2ccccc2c(OCc2ccc(-c3ccccc3-c3nnn[nH]3)cc2)c1C", "values": [{"measurement": "IC50", "setting": "[2]", "result": 4.6, "unit": "µM"}]}
{"smiles": "CCCCc1nc(Cl)c(CO)n1Cc1ccc(-c2ccccc2-c2nnn[nH]2)cc1", "values": [{"measurement": "ED50", "setting": "[1]", "result": 0.65, "unit": "mg/kg"}]}
{"smiles": "CCc1cc(OCc2ccc(-c3ccccc3-c3nnn[nH]3)cc2)c2cccc(Cl)c2n1", "values": [{"measurement": "IC50", "setting": "[2]", "result": 0.14, "unit": "µM"}]}
{"smiles": "CCc1cc(OCc2ccc(-c3ccccc3-c3nn[nH]n3)cc2)c2cc(OC)ccc2n1", "values": [{"measurement": "IC50", "setting": "[2]", "result": 0.022, "unit": "µM"}, {"measurement": "ED50", "setting": "[1]", "result": 0.32, "unit": "mg/kg"}]}
{"smiles": "CCc1cc(OCc2ccc(-c3ccccc3-c3nn[nH]n3)cc2)c2cc(C(F)(F)F)ccc2n1", "values": [{"measurement": "ED50", "setting": "[1]", "result": "> 5", "unit": "mg/kg"}]}
{"smiles": "CCc1cc(OCc2ccc(-c3ccccc3-c3nn[nH]n3)cc2)c2cccc(OC)c2n1", "values": [{"measurement": "IC50", "setting": "[2]", "result": 0.96, "unit": "µM"}, {"measurement": "ED50", "setting": "[1]", "result": "> 5", "unit": "mg/kg"}]}
{"smiles": "CCc1cc(OCc2ccc(-c3ccccc3-c3nn[nH]n3)cc2)c2c(Cl)cccc2n1", "values": [{"measurement": "ED50", "setting": "[1]", "result": "> 5", "unit": "mg/kg"}]}
{"smiles": "Cc1cc(CCc2ccc(-c3ccccc3-c3nnn[nH]3)cc2)c2ccccc2n1", "values": [{"measurement": "IC50", "setting": "[2]", "result": 0.27, "unit": "µM"}]}
{"smiles": "CCc1cc(OCc2ccc(-c3ccccc3-c3nnn[nH]3)cc2)c2cc(OC(C)C)ccc2n1", "values": [{"measurement": "IC50", "setting": "[2]", "result": 0.026, "unit": "µM"}]}
{"smiles": "CCc1cc(OCc2ccc(-c3ccccc3-c3nn[nH]n3)cc2)c2cc(C#N)ccc2n1", "values": [{"measurement": "ED50", "setting": "[1]", "result": "> 5", "unit": "mg/kg"}]}
{"smiles": "Cc1cc(OCc2ccc(-c3ccccc3-c3nn[nH]n3)cc2)c2ccccc2n1", "values": [{"measurement": "ED50", "setting": "[1]", "result": 0.73, "unit": "mg/kg"}]}
{"smiles": "Cc1cc(OCc2ccc(-c3ccccc3-c3nn[nH]n3)cc2)c2cccc(C)c2n1", "values": [{"measurement": "IC50", "setting": "[2]", "result": 0.31, "unit": "µM"}, {"measurement": "ED50", "setting": "[1]", "result": "> 5", "unit": "mg/kg"}]}
{"smiles": "CCc1cc(OCc2ccc(-c3ccccc3-c3nnn[nH]3)cc2)c2ccccc2n1", "values": [{"measurement": "ED50", "setting": "[3]", "result": 1, "unit": "mg/kg"}, {"measurement": "IC50", "setting": "[2]", "result": 0.031, "unit": "µM"}]}
{"smiles": "Cc1cc(OCc2ccc(-c3ccccc3C(=O)O)cc2)c2ccccc2n1", "values": [{"measurement": "IC50", "setting": "[2]", "result": 0.18, "unit": "µM"}]}
{"smiles": "CCc1cc(OCc2ccc(-c3ccccc3-c3nn[nH]n3)cc2)c2cc(C(=O)OC)ccc2n1", "values": [{"measurement": "IC50", "setting": "[2]", "result": 0.066, "unit": "µM"}, {"measurement": "ED50", "setting": "[1]", "result": 2.1, "unit": "mg/kg"}]}
{"smiles": "CCc1cc(OCc2ccc(-c3ccccc3-c3nn[nH]n3)cc2)c2cc(OCCF)ccc2n1", "values": [{"measurement": "IC50", "setting": "[2]", "result": 0.07, "unit": "µM"}, {"measurement": "ED50", "setting": "[1]", "result": 0.34, "unit": "mg/kg"}]}
{"smiles": "CCc1cc(OCc2ccc(-c3ccccc3-c3nn[nH]n3)cc2)c2ccc(Cl)cc2n1", "values": [{"measurement": "IC50", "setting": "[2]", "result": 0.16, "unit": "µM"}, {"measurement": "ED50", "setting": "[1]", "result": "> 5", "unit": "mg/kg"}]}
{"smiles": "CCc1cc(OCc2ccc(-c3ccccc3-c3nn[nH]n3)cc2)c2cccc(C(F)(F)F)c2n1", "values": [{"measurement": "ED50", "setting": "[1]", "result": "> 5", "unit": "mg/kg"}]}
{"smiles": "CCc1cc(OCc2ccc(-c3ccccc3-c3nn[nH]n3)cc2)c2cc(OC(C)C)ccc2n1", "values": [{"measurement": "ED50", "setting": "[1]", "result": 0.18, "unit": "mg/kg"}]}
{"smiles": "CCCCc1nc(Cl)c(CO)n1Cc1ccc(-c2ccccc2C(=O)O)cc1", "values": [{"measurement": "IC50", "setting": "[2]", "result": 0.43, "unit": "µM"}]}
{"smiles": "CCc1cc(OCc2ccc(-c3ccccc3-c3nnn[nH]3)cc2)c2cc(C(F)(F)F)ccc2n1", "values": [{"measurement": "IC50", "setting": "[2]", "result": 0.86, "unit": "µM"}]}
{"smiles": "CCc1cc(OCc2ccc(-c3ccccc3-c3nnn[nH]3)cc2)c2c(C#N)cccc2n1", "values": [{"measurement": "IC50", "setting": "[2]", "result": 0.06, "unit": "µM"}]}
{"smiles": "Cc1cc(SCc2ccc(-c3ccccc3-c3nn[nH]n3)cc2)c2ccccc2n1", "values": [{"measurement": "IC50", "setting": "[2]", "result": 0.37, "unit": "µM"}]}
{"smiles": "CCCCc1nc(Cl)c(CO)n1Cc1ccc(-c2ccccc2-c2nn[nH]n2)cc1", "note": "[LOSARTAN POTASSIUM]", "values": [{"measurement": "IC50", "setting": "[2]", "result": 0.018, "unit": "µM"}]}
{"smiles": "c1ccc(-c2nnn[nH]2)c(-c2ccc(COc3ccnc4ccccc34)cc2)c1", "values": [{"measurement": "IC50", "setting": "[2]", "result": 6.3, "unit": "µM"}]}
{"smiles": "Cc1ccc2nc(C)cc(OCc3ccc(-c4ccccc4-c4nn[nH]n4)cc3)c2c1", "values": [{"measurement": "IC50", "setting": "[2]", "result": 0.47, "unit": "µM"}, {"measurement": "ED50", "setting": "[1]", "result": "> 5", "unit": "mg/kg"}]}
{"smiles": "CCc1cc(OCc2ccc(-c3ccccc3-c3nnn[nH]3)cc2)c2c(C)cccc2n1", "values": [{"measurement": "IC50", "setting": "[2]", "result": 0.013, "unit": "µM"}]}
{"smiles": "CCc1cc(OCc2ccc(-c3ccccc3-c3nnn[nH]3)cc2)c2ccc(OC)cc2n1", "values": [{"measurement": "IC50", "setting": "[2]", "result": 0.22, "unit": "µM"}]}
{"smiles": "CCc1cc(OCc2ccc(-c3ccccc3-c3nn[nH]n3)cc2)c2ccc(C#N)cc2n1", "values": [{"measurement": "IC50", "setting": "[2]", "result": 0.46, "unit": "µM"}, {"measurement": "ED50", "setting": "[1]", "result": "> 5", "unit": "mg/kg"}]}
{"smiles": "CCc1cc(OCc2ccc(-c3ccccc3-c3nnn[nH]3)cc2)c2cc(C#N)ccc2n1", "values": [{"measurement": "IC50", "setting": "[2]", "result": 0.36, "unit": "µM"}]}
{"smiles": "CCCc1cc(OCc2ccc(-c3ccccc3C(=O)O)cc2)c2ccccc2n1", "values": [{"measurement": "IC50", "setting": "[2]", "result": 0.6, "unit": "µM"}]}
{"smiles": "CCc1cc(OCc2ccc(-c3ccccc3-c3nnn[nH]3)cc2)c2c(Cl)cccc2n1", "values": [{"measurement": "IC50", "setting": "[2]", "result": 0.12, "unit": "µM"}]}
{"smiles": "CCc1cc(OCc2ccc(-c3ccccc3-c3nn[nH]n3)cc2)c2ccc(C)cc2n1", "values": [{"measurement": "IC50", "setting": "[2]", "result": 0.14, "unit": "µM"}, {"measurement": "ED50", "setting": "[1]", "result": "> 5", "unit": "mg/kg"}]}
{"smiles": "CCc1cc(OCc2ccc(-c3ccccc3-c3nn[nH]n3)cc2)c2cc(OCC(F)(F)F)ccc2n1", "values": [{"measurement": "IC50", "setting": "[2]", "result": 0.026, "unit": "µM"}, {"measurement": "ED50", "setting": "[1]", "result": 0.71, "unit": "mg/kg"}]}
